# Laboratory results taken from US6525001B1, “Substituted pyrimidine and pyridine herbicides” (Mid-American Commercialization Corporation, priority 1997, dated 2003).
# Key:
# Assay type in all cases: in vivo
# [1] = system: Italian ryegrass (Lolium multiflorum); assay: Test D; conditions: POSTEMERGENCE
# Procedure: (§1) Compounds evaluated in this test were formulated in a non-phytotoxic solvent mixture which included a surfactant and applied to plants that were in the 1- to 4-leaf stage (postemergence application). A mixture of sandy loam soil and greenhouse potting mix in a 60:40 ratio was used for the postemergence test.
# (§2) Plantings of these crops and weed species were adjusted to produce plants of appropriate size for the postemergence test. All plant species were grown using normal greenhouse practices. Crop and weed species include alfalfa (Medicago sativa), annual bluegrass (Poa annua), blackgrass (Alopecurus myosuroides), black nightshade (Solanum nigra), chickweed (Stellaria media), common poppy (Papaver rhoeas), deadnettle (Lamium amplexicaule), downy brome (Bromus tectorum), field violet (Viola arvensis), galium 2 (Galium aparine), green foxtail (Setaria viridis), Italian ryegrass (Lolium multiflorum), jointed goatgrass (Aegilops cylindrica), kochia (Kochia scoparia), lambsquarters (Chenopodium album), lentil (Lens culinaris), littleseed canarygrass (Phalaris minor), pea (Pisum sativum), potato (Solanum tuberosum), rape (Brassica napus), redroot pigweed (Amaranthus retroflexus), Russian thistle (Salsola kali), scentless chamomile (Matricaria inodora), sorghum (Sorghum vulgare), spring barley (Hordeum vulgare), sugar beet (Beta vulgaris), sunflower (Helianthus annuus), ivyleaf speedwell (Veronica hederaefolia), spring wheat (Triticum aestivum), winter wheat (Triticum aestivum), wild buckwheat (Polygonum convolvulus), wild mustard (Sinapis arvensis), wild oat (Avena fatua), windgrass (Apera spica-venti) and winter barley (Hordeum vulgare).
# (§3) Treated plants and untreated controls were maintained in a greenhouse for approximately 21 to 28 days, after which all treated plants were compared to untreated controls and visually evaluated. Plant response ratings, summarized in Table D, are based upon a 0 to 100 scale where 0 is no effect and 100 is complete control. A dash response (−) means no test result.
# [2] = system: annual bluegrass (Poa annua); assay: Test D; conditions: POSTEMERGENCE
# Procedure: as §1, §2, §3
# [3] = system: blackgrass (Alopecurus myosuroides); assay: Test D; conditions: POSTEMERGENCE
# Procedure: as §1, §2, §3
# [4] = system: downy brome (Bromus tectorum); assay: Test D; conditions: POSTEMERGENCE
# Procedure: as §1, §2, §3
# [5] = system: green foxtail (Setaria viridis); assay: Test D; conditions: POSTEMERGENCE
# Procedure: as §1, §2, §3
# [6] = system: jointed goatgrass (Aegilops cylindrica); assay: Test D; conditions: POSTEMERGENCE
# Procedure: as §1, §2, §3
# [7] = system: littleseed canarygrass (Phalaris minor); assay: Test D; conditions: POSTEMERGENCE
# Procedure: as §1, §2, §3
# [8] = system: scentless chamomile (Matricaria inodora); assay: Test D; conditions: POSTEMERGENCE
# Procedure: as §1, §2, §3
# [9] = system: spring barley (Hordeum vulgare); assay: Test D; conditions: POSTEMERGENCE
# Procedure: as §1, §2, §3
# [10] = system: spring wheat (Triticum aestivum); assay: Test D; conditions: POSTEMERGENCE
# Procedure: as §1, §2, §3
# [11] = system: sunflower (Helianthus annuus); assay: Test D; conditions: POSTEMERGENCE
# Procedure: as §1, §2, §3
# [12] = system: wild oat (Avena fatua); assay: Test D; conditions: POSTEMERGENCE
# Procedure: as §1, §2, §3
# [13] = system: winter barley (Hordeum vulgare); assay: Test D; conditions: POSTEMERGENCE
# Procedure: as §1, §2, §3
# [14] = system: winter wheat (Triticum aestivum); assay: Test D; conditions: POSTEMERGENCE
# Procedure: as §1, §2, §3
# [15] = system: B. signalgrass; assay: Test E pre-/postemergence/post directed; parameters: key: 0 is no effect; 100 is complete control; conditions: PREEMERGENCE
# Method in brief: (§4)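 Injury was scored visually on a 0 to 100 scale (100 = complete control) 13 to 21 days after treatment of greenhouse-grown plants. Test chemicals, in a surfactant-containing non-phytotoxic solvent, were sprayed onto soil within a day of planting, onto plants at the two to four leaf stage, or directed at the base of the plants.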
# [16] = system: arrowleaf sida (Sida rhombifolia); assay: Test E pre-/postemergence/post directed; parameters: key: 0 is no effect; 100 is complete control; conditions: PREEMERGENCE
# Method in brief: as §4
# [17] = system: sandbur (Cenchrus echinatus); assay: Test E pre-/postemergence/post directed; parameters: key: 0 is no effect; 100 is complete control; conditions: PREEMERGENCE
# Method in brief: as §4
smiles,measurement,setting,value
Cc1cnc(-n2ccc(C(F)(F)F)n2)nc1Cn1ccc(C(F)(F)F)n1 [Compound 52],"Plant response rating, I. Ryegrass",[1]; Rate 16 g/ha,5
same,"Plant response rating, I. Ryegrass",[1]; Rate 31 g/ha,10
same,"Plant response rating, I. Ryegrass",[1]; Rate 62 g/ha,10
same,"Plant response rating, I. Ryegrass",[1]; Rate 125 g/ha,10
same,"Plant response rating, Annual bluegras",[2]; Rate 16 g/ha,10
same,"Plant response rating, Annual bluegras",[2]; Rate 31 g/ha,20
same,"Plant response rating, Annual bluegras",[2]; Rate 62 g/ha,20
same,"Plant response rating, Annual bluegras",[2]; Rate 125 g/ha,50
same,"Plant response rating, Blackgrass",[3]; Rate 16 g/ha,10
same,"Plant response rating, Blackgrass",[3]; Rate 31 g/ha,10
same,"Plant response rating, Blackgrass",[3]; Rate 62 g/ha,10
same,"Plant response rating, Blackgrass",[3]; Rate 125 g/ha,10
same,"Plant response rating, Downy brome",[4]; Rate 16 g/ha,10
same,"Plant response rating, Downy brome",[4]; Rate 31 g/ha,20
same,"Plant response rating, Downy brome",[4]; Rate 62 g/ha,20
same,"Plant response rating, Downy brome",[4]; Rate 125 g/ha,20
same,"Plant response rating, Green foxtail",[5]; Rate 16 g/ha,10
same,"Plant response rating, Green foxtail",[5]; Rate 31 g/ha,10
same,"Plant response rating, Green foxtail",[5]; Rate 62 g/ha,10
same,"Plant response rating, Green foxtail",[5]; Rate 125 g/ha,30
same,"Plant response rating, Jointed goatgra",[6]; Rate 16 g/ha,10
same,"Plant response rating, Jointed goatgra",[6]; Rate 31 g/ha,10
same,"Plant response rating, Jointed goatgra",[6]; Rate 62 g/ha,10
same,"Plant response rating, Jointed goatgra",[6]; Rate 125 g/ha,10
same,"Plant response rating, LS canarygrass",[7]; Rate 16 g/ha,10
same,"Plant response rating, LS canarygrass",[7]; Rate 31 g/ha,10
same,"Plant response rating, LS canarygrass",[7]; Rate 62 g/ha,10
same,"Plant response rating, LS canarygrass",[7]; Rate 125 g/ha,20
same,"Plant response rating, Scentless chamo",[8]; Rate 16 g/ha,30
same,"Plant response rating, Scentless chamo",[8]; Rate 31 g/ha,50
same,"Plant response rating, Scentless chamo",[8]; Rate 62 g/ha,60
same,"Plant response rating, Scentless chamo",[8]; Rate 125 g/ha,70
same,"Plant response rating, Spring Barley",[9]; Rate 16 g/ha,10
same,"Plant response rating, Spring Barley",[9]; Rate 31 g/ha,10
same,"Plant response rating, Spring Barley",[9]; Rate 62 g/ha,10
same,"Plant response rating, Spring Barley",[9]; Rate 125 g/ha,10
same,"Plant response rating, Spring Wheat",[10]; Rate 16 g/ha,10
same,"Plant response rating, Spring Wheat",[10]; Rate 31 g/ha,10
same,"Plant response rating, Spring Wheat",[10]; Rate 62 g/ha,10
same,"Plant response rating, Spring Wheat",[10]; Rate 125 g/ha,10
same,"Plant response rating, Sunflower",[11]; Rate 16 g/ha,40
same,"Plant response rating, Sunflower",[11]; Rate 31 g/ha,20
same,"Plant response rating, Sunflower",[11]; Rate 62 g/ha,50
same,"Plant response rating, Sunflower",[11]; Rate 125 g/ha,70
same,"Plant response rating, Wild oat",[12]; Rate 16 g/ha,10
same,"Plant response rating, Wild oat",[12]; Rate 31 g/ha,10
same,"Plant response rating, Wild oat",[12]; Rate 62 g/ha,10
same,"Plant response rating, Wild oat",[12]; Rate 125 g/ha,10
same,"Plant response rating, Barley (winter)",[13]; Rate 16 g/ha,10
same,"Plant response rating, Barley (winter)",[13]; Rate 31 g/ha,10
same,"Plant response rating, Barley (winter)",[13]; Rate 62 g/ha,10
same,"Plant response rating, Barley (winter)",[13]; Rate 125 g/ha,10
same,"Plant response rating, Wheat (winter)",[14]; Rate 16 g/ha,10
same,"Plant response rating, Wheat (winter)",[14]; Rate 31 g/ha,10
same,"Plant response rating, Wheat (winter)",[14]; Rate 62 g/ha,10
same,"Plant response rating, Wheat (winter)",[14]; Rate 125 g/ha,10
"Cc1cnc(-c2ccc(C(F)(F)F)cc2)nc1Cc1cccc(C(F)(F)F)c1 [Example 1, 5-methyl-2-[4-(trifluoromethyl)phenyl]-4-[[3-(trifluoromethyl)phenyl]methyl]pyrimidine]","Plant response rating, I. Ryegrass",[1]; Rate 16 g/ha,5
same,"Plant response rating, I. Ryegrass",[1]; Rate 31 g/ha,10
same,"Plant response rating, I. Ryegrass",[1]; Rate 62 g/ha,10
same,"Plant response rating, I. Ryegrass",[1]; Rate 125 g/ha,10
same,"Plant response rating, Annual bluegras",[2]; Rate 16 g/ha,20
same,"Plant response rating, Annual bluegras",[2]; Rate 31 g/ha,50
same,"Plant response rating, Annual bluegras",[2]; Rate 62 g/ha,50
same,"Plant response rating, Blackgrass",[3]; Rate 16 g/ha,10
same,"Plant response rating, Blackgrass",[3]; Rate 31 g/ha,10
same,"Plant response rating, Blackgrass",[3]; Rate 62 g/ha,10
same,"Plant response rating, Blackgrass",[3]; Rate 125 g/ha,30
same,"Plant response rating, Downy brome",[4]; Rate 16 g/ha,2
same,"Plant response rating, Downy brome",[4]; Rate 31 g/ha,10
same,"Plant response rating, Downy brome",[4]; Rate 62 g/ha,10
same,"Plant response rating, Downy brome",[4]; Rate 125 g/ha,10
same,"Plant response rating, Green foxtail",[5]; Rate 16 g/ha,5
same,"Plant response rating, Green foxtail",[5]; Rate 31 g/ha,10
same,"Plant response rating, Green foxtail",[5]; Rate 62 g/ha,20
same,"Plant response rating, Green foxtail",[5]; Rate 125 g/ha,20
same,"Plant response rating, Jointed goatgra",[6]; Rate 16 g/ha,5
same,"Plant response rating, Jointed goatgra",[6]; Rate 31 g/ha,10
same,"Plant response rating, Jointed goatgra",[6]; Rate 62 g/ha,10
same,"Plant response rating, Jointed goatgra",[6]; Rate 125 g/ha,10
same,"Plant response rating, LS canarygrass",[7]; Rate 16 g/ha,10
same,"Plant response rating, LS canarygrass",[7]; Rate 31 g/ha,10
same,"Plant response rating, LS canarygrass",[7]; Rate 62 g/ha,20
same,"Plant response rating, LS canarygrass",[7]; Rate 125 g/ha,20
same,"Plant response rating, Scentless chamo",[8]; Rate 16 g/ha,30
same,"Plant response rating, Scentless chamo",[8]; Rate 31 g/ha,60
same,"Plant response rating, Scentless chamo",[8]; Rate 62 g/ha,60
same,"Plant response rating, Scentless chamo",[8]; Rate 125 g/ha,60
same,"Plant response rating, Spring Barley",[9]; Rate 16 g/ha,5
same,"Plant response rating, Spring Barley",[9]; Rate 31 g/ha,10
same,"Plant response rating, Spring Barley",[9]; Rate 62 g/ha,10
same,"Plant response rating, Spring Barley",[9]; Rate 125 g/ha,10
same,"Plant response rating, Spring Wheat",[10]; Rate 16 g/ha,5
same,"Plant response rating, Spring Wheat",[10]; Rate 31 g/ha,10
same,"Plant response rating, Spring Wheat",[10]; Rate 62 g/ha,10
same,"Plant response rating, Spring Wheat",[10]; Rate 125 g/ha,20
same,"Plant response rating, Sunflower",[11]; Rate 16 g/ha,5
same,"Plant response rating, Sunflower",[11]; Rate 31 g/ha,10
same,"Plant response rating, Sunflower",[11]; Rate 62 g/ha,20
same,"Plant response rating, Sunflower",[11]; Rate 125 g/ha,20
same,"Plant response rating, Wild oat",[12]; Rate 16 g/ha,5
same,"Plant response rating, Wild oat",[12]; Rate 31 g/ha,20
same,"Plant response rating, Wild oat",[12]; Rate 62 g/ha,20
same,"Plant response rating, Wild oat",[12]; Rate 125 g/ha,30
same,"Plant response rating, Barley (winter)",[13]; Rate 16 g/ha,5
same,"Plant response rating, Barley (winter)",[13]; Rate 31 g/ha,10
same,"Plant response rating, Barley (winter)",[13]; Rate 62 g/ha,10
same,"Plant response rating, Barley (winter)",[13]; Rate 125 g/ha,10
same,"Plant response rating, Wheat (winter)",[14]; Rate 16 g/ha,5
same,"Plant response rating, Wheat (winter)",[14]; Rate 31 g/ha,10
same,"Plant response rating, Wheat (winter)",[14]; Rate 62 g/ha,10
same,"Plant response rating, Wheat (winter)",[14]; Rate 125 g/ha,10
same,"Plant response rating, B. signalgrass",[15]; Rate 32 g/ha,20
same,"Plant response rating, B. signalgrass",[15]; Rate 64 g/ha,90
same,"Plant response rating, B. signalgrass",[15]; Rate 125 g/ha,100
same,"Plant response rating, Arrowleaf sida",[16]; Rate 32 g/ha,98
same,"Plant response rating, Arrowleaf sida",[16]; Rate 64 g/ha,98
same,"Plant response rating, Arrowleaf sida",[16]; Rate 125 g/ha,100
same,"Plant response rating, Sandbur",[17]; Rate 250 g/ha,100
"Cc1cnc(-n2ccc(C(F)(F)F)n2)nc1Cc1cccc(C(F)(F)F)c1 [Example 2, 5-methyl-4-[[3-(trifluoromethyl)phenyl]methyl]-2-[3-(trifluoromethyl)-1H-pyrazol-1-yl]pyrimidine]","Plant response rating, B. signalgrass",[15]; Rate 32 g/ha,65
same,"Plant response rating, B. signalgrass",[15]; Rate 64 g/ha,100
same,"Plant response rating, B. signalgrass",[15]; Rate 125 g/ha,100
same,"Plant response rating, B. signalgrass",[15]; Rate 250 g/ha,100
same,"Plant response rating, Arrowleaf sida",[16]; Rate 32 g/ha,98
same,"Plant response rating, Arrowleaf sida",[16]; Rate 64 g/ha,100
same,"Plant response rating, Arrowleaf sida",[16]; Rate 125 g/ha,100
same,"Plant response rating, Arrowleaf sida",[16]; Rate 250 g/ha,100
same,"Plant response rating, Sandbur",[17]; Rate 250 g/ha,100
same,"Plant response rating, Sandbur",[17]; Rate 500 g/ha,100
